Assay results published in patent US20080131366A1, “Folate Receptor Gene Modulation For Cancer Diagnosis And Therapy” (priority 2003, published 2008).

Assays:
Format in all cases: cell-based
FR-α = assay: Induction of endogenous FR-α in ER+/FRα-negative cells; conditions: ER+/FRα-negative cells including BG-1; results not shown
Text: It appears that ER will only modulate the endogenous FR-α gene in cells in which the gene is transcriptionally active.

FR-α promoter [1] = assay: FR-α promoter-luciferase reporter in IGROV-1 cells co-transfected with ER; conditions: IGROV-1, ER co-transfected, 1 nM E2, pharmacologic concentrations of antiestrogen
Experimental: (§1) (FIG. 1A) HeLa and IGROV-1 cells (10^6) were co-transfected with the FR-α promoter-luciferase construct (400 ng) and either an ER expression plasmid (25 ng) or with the plasmid vector alone (25 ng) in the presence of 1 nM E2. Antiestrogens were introduced at the time of transfection. […] (FIG. 1B) The FR-α promoter-luciferase construct (400 ng) was transfected into BG-1 cells (10^6) in the absence or in the presence of E2 (1 nM) and antiestrogens were introduced at the time of transfection. (FIG. 1C) HeLa cells (10^6) were transfected with the thymidine kinase (TK)-promoter-luciferase (200 ng) or Rous Sarcoma Virus (RSV)-promoter-luciferase (200 ng) constructs and were co-transfected with either ER plasmid (25 ng) or with the plasmid vector (25 ng). Antiestrogens were introduced at the time of transfection.
(§2) Cell Culture and Transfection: HeLa I-1 cells were kindly provided by Dr. S. T. Rosen. BG-1 cells were provided by Dr. Randolf Ruch. […] Uniformity of transfection was routinely monitored through cotransfections with the β-galactosidase expression plasmid, pSV-β-gal (Promega). β-galactosidase activity was measured colorimetrically using the assay system available from Promega. […]

FR-α promoter [2] = assay: FR-α promoter-luciferase reporter in BG-1 cells (endogenous ER); conditions: BG-1, endogenous ER
Experimental: as §1, §2

FR-α promoter [3] = assay: FR-α promoter-luciferase in HeLa cells transfected with ERβ
Experimental: FIG. 8 is graph showing an effect of ERα vs. […] on FR-α promoter activity. HeLa cells (10^6) were transfected with the FR-α promoter-luciferase construct (200 ng) and co-transfected individually or in combination with expression plasmids (25 ng) for ERα, […] or with the plasmid vector. The cells were treated from the time of transfection with E2 (1 nm) and either without or with ICI 182, 780.
Effect of ERβ on FR-α Promoter activity: Since ER+ gynecological tumors are known to frequently co-express ERα and ERβ, the inventor herein tested whether ERβ may modulate FR-α similar to ERα or may otherwise counteract the effect of ERα.

FR-α/SV40 (GC)6 promoter = assay: FR-α/SV40 (GC)6 chimeric promoter-luciferase in HeLa cells with ER; conditions: in the presence of ER
Experimental: FIG. 6C is a graph showing HeLa cells (10^6) which were transfected with FR-α promoter-luciferase (FR-α-Luc) (400 ng) [Seq. ID No. 6], FR-1-Luc in which the G/C-rich region (−47 nt to −18 nt) [Seq. ID No. 7] of the P4 promoter was replaced by the G/C-rich region in the SV40 early promoter (FR-α/SV40 (GC)6) (400 ng), or with FR-α-Luc[Seq. ID No. 6] in which the initiator region (−28 nt to +33 nt) [Seq. ID No. 8] was replaced by the TATA box-containing initiator region of the SV40 early promoter (FR-α/SV40-lnr) (400 ng). ER expression plasmid (25 ng) or the plasmid vector (25 ng) was co-transfected as indicated. The transfected cells were grown in the presence of E2 (1 nM) and either in the absence or in the presence of ICI 182, 780 for 48 h before harvesting them for luciferase assays.
DNA Constructs: Construct design used either natural restriction sites or restriction sites created by the polymerase chain reaction (PCR) using Vent DNA polymerase (New England Biolabs) and custom oligonucleotides from Gibco BRL. In cases where a natural restriction site could not be found for use, complementary primers containing an appropriate restriction site or point mutation were used in conjunction with upstream and downstream primers containing restriction sites. Alternatively, mutagenic oligonucleotides were used as end primers to amplify the desired fragment. […]

FR-α promoter [4] = assay: FR-α promoter-luciferase reporter in HeLa cells co-transfected with ER
Experimental: as §1
FIGS. 2A and 2B are graphs showing an estrogen and antiestrogen dose response of a control ERE-driven promoter and the FR-α promoter in HeLa cells. The Y-axis in FIG. 2A indicates promoter activation, whereas the Y-axis in FIG. 2B indicates promoter repression. The cells (10^6) were transfected with either ERE2E1b-luciferase (100 ng) (FIG. 2A) or FR-α promoter-luciferase (100 ng) (FIG. 2B) and co-transfected with the ER expression plasmid (50 ng) where indicated. Cells that were not co-transfected with the ER-plasmid were co-transfected instead with the plasmid vector alone (50 ng).
FIGS. 3A and 3B are graphs showing a time course of response of the control ERE2E1b-luciferase (FIG. 3A) and FR-α promoter luciferase (FIG. 3B) to antiestrogens in HeLa cells. The cells (10^6) were transfected with the indicated promoter-luciferase construct (100 ng) and co-transfected with ER expression plasmid (50 ng) in the presence of E2 (1 nM).
In one set of experiments, the antiestrogens were removed after a 6 h treatment.
Cell Culture and Transfection: HeLa I-1 cells were kindly provided by Dr. S. T. Rosen. BG-1 cells were provided by Dr. Randolf Ruch. HeLa (American Type Tissue Collection) and HeLa I-1 cells were routinely cultured in phenol red-free MEM supplemented with fetal bovine serum (FBS) (10%), penicillin (100 units/mL), streptomycin ([…]), and L-glutamine (2 mM). BG-1 and IGROV1 (American Type Tissue Collection) cells were routinely cultured in DMEM and supplemented as above. Treated or transfected cells were grown in phenol-red free media supplemented with charcoal-stripped FBS (5% v/v), penicillin (100 units/mL), streptomycin ([…]), L-glutamine (2 mM), insulin (2 μg/mL), and transferrin (40 μg/mL) unless otherwise noted. In addition, treated HeLa I-1 cells were grown in culture with 50 μg/mL G418. […] Uniformity of transfection was routinely monitored through cotransfections with the β-galactosidase expression plasmid, pSV-β-gal (Promega). β-galactosidase activity was measured colorimetrically using the assay system available from Promega.
Luciferase Assay: Forty-eight hours after transfection, the cells were washed once with PBS (10 mM sodium phosphate, pH 7.5, 150 mM NaCl) and harvested in 400 μL of reporter lysis buffer provided with the luciferase assay system (Promega). The samples were centrifuged at 12,000 g for 2 min at room temperature. The supernatant was assayed for luciferase activity in a luminometer (Lumat LB9501, Berthold) using the luciferase substrate from Promega.

C[C@]12CC[C@@H]3c4ccc(O)cc4C[C@@H](CCCCCCCCC[S+]([O-])CCCC(F)(F)C(F)(F)F)[C@H]3[C@@H]1CC[C@@H]2O (stereo partly drawn) [ICI 182,780]
induction of endogenous FR-α expression (FR-α): In no case did the inventor observe induction | FR-α promoter activity after repression by ER (FR-α promoter [1]): either partially or completely restored to the uninhibited values | FR-α promoter activity (FR-α promoter [2]): increased the promoter activity | repression of the FR-α promoter by ERβ (FR-α promoter [3]): reversed | chimeric promoter activity (FR-α/SV40 (GC)6 promoter): this activation was counteracted | duration of derepression after withdrawing the compound (FR-α promoter [4]; 6 h treatment): at least 18 h | derepression of FR-α promoter after 6 h treatment and withdrawal (FR-α promoter [4]; 6 h treatment, then compound withdrawn): full derepression | effect on FR-α promoter (ligand dose response) (FR-α promoter [4]; HeLa, ER co-transfected): the repression was counteracted | FR-α promoter activity after repression by ER (FR-α promoter [4]; HeLa, ER co-transfected, 1 nM E2, pharmacologic concentrations of antiestrogen): either partially or completely restored to the uninhibited values | reporter activity at the end of 48 h post-transfection (FR-α promoter [4]; antiestrogen introduced 24 h after co-transfection): a doubling of the reporter activity | onset of activation of FR-α promoter (FR-α promoter [4]; antiestrogen introduced 24 h after transfection): began within hours and progressively increased | FR-α promoter activity in the absence of ER (FR-α promoter [4]; no ER co-transfected, HeLa and IGROV-1, results not shown): did not alter FR-α promoter activity
